# From patent publication US20210260057A1, “COMPOSITIONS AND METHODS TARGETING GLUTAMINE AND ITS METABOLISM FOR DIAGNOSING AND TREATING CANCER AND THERAPY-ASSOCIATED SIDE EFFECTS” (CEDARS-SINAI MEDICAL CENTER, priority 2018, published 2021)
# Several values for one entry are separate records, joined by “and”; a condition that tells them apart may be missing. Equal values may be shown once.
# What was measured:
# [1] = test system: primary CAF; assay: Macropinocytosis assay (TMR-dextran uptake); assay type: cell-based, human; conditions: EIPA 25 μM, 5-Aza DC 5 μM (FIG. 9A)
# Experimental: Macropinocytosis assay. These were performed as described previously (Commisso C, Davidson S M, Soydaner-Azeloglu R G, Parker S J, Kamphorst J J, Hackett S, Grabocka E, Nofal M, Drebin J A, Thompson C B, et al. Macropinocytosis of protein is an amino acid supply route in Ras-transformed cells. Nature. 2013; 497(7451):633-7), briefly fibroblasts which were grown on cover slips, serum-starved for 18 hours. TMR-dextran (1 mg/ml; 70 kDa, […]), which is an established marker of macropinocytosis, was added to serum-free medium for 30 min at 37° C. for macropinosomes labeling (Commisso C, Davidson S M, Soydaner-Azeloglu R G, Parker S J, Kamphorst J J, Hackett S, Grabocka E, Nofal M, Drebin J A, Thompson C B, et al. Macropinocytosis of protein is an amino acid supply route in Ras-transformed cells. Nature. 2013; 497(7451):633-7). […] Images were captured using laser confocal scanning microscopy (Leica) and analyzed via LASX software. […] The fluorescence signals in the cells were imaged using FSX100 (Olympus, USA). To determine whether the internalized albumin is intracellularly degraded, we have utilized a self-quenching red fluorescent dye, where lysosomal proteases enable red fluorescence visualization. Cells were incubated in RPMI media containing DQ-BSA (10 μg/ml) for 30 min and washed twice with PBS and monitored by confocal microscopy.
# [2] = test system: RASAL3 promoter; assay: Methylation specific PCR of RASAL3 exon 2 in CAF; assay type: cell-based, human; conditions: CAF after treatment
# Experimental: (FIG. 13A) Quantitative rtPCR analysis of RASAL3 in NAF and CAF was performed following 5 day treatment with bicalutamide (Bic, 10^−5 M), enzalutamide (Enza, 10^−5 M), R1881 (10^−9 M), or 5-Azacytidine (5-Aza, […]). RASAL3 expression was normalized GAPDH expression. Data represent the mean±SEM. *P<0.05, ***P<0.001, and ****P<0.0001, by two-way ANOVA followed by multiple comparison. Results are the average of at least three independent experiments. (FIG. 13B) MS-PCR of the RASAL3 exon 2 methylation status in CAF after treatment with enzalutamide, R1881, 5-Azacytidine and bicalutamide was performed. The PCR products in the lanes marked “U” indicate unmethylated templates for RASAL3 gene, whereas the products in the lanes marked “M” indicate methylated templates. Data are representative of three independent experiments.
# [3] = test system: RASAL3 mRNA in CAF; assay: RASAL3 mRNA expression (rtPCR) in CAF; assay type: cell-based, human; conditions: 5-day treatment; Bic 10^−5 M, Enza 10^−5 M, R1881 10^−9 M, 5-Aza 5 mmol/L
# Experimental: (§1) RNA expression level. All real-time PCR assays were carried out using three technical replicates and three independent cDNA syntheses on a 7500 Real-Time PCR System (Applied Biosystems). Data were normalized using an internal control gene, either GAPDH or β-actin. Relative quantification of expression levels (RQ) was calculated using the ^2-ΔΔCt method.
# [4] = test system: prostate cancer epithelial cells; assay: ALDH (stem marker) in prostate cancer epithelial cells; assay type: cell-based
# [5] = test system: prostate cancer (serum PSA); assay: PSA response of PCa patients on androgen targeted therapy; assay type: in vivo, human; parameters: PSA on treatment: unit not given beside the values; conditions: for PSA on treatment: individual PCa patient on the listed Rx
# From the text: Plasma glutamine level may be prognostic for ADT sensitivity. Considering the striking finding that glutamine can induce ADT resistance, we tested if glutamine concentrations can be associated with ADT sensitivity in prostate cancer patients. We measured blood plasma glutamine concentrations in 28 PCa patients that received ADT (Table 1). Of note, the specific androgen signaling-axis interventions in the patient pool included, androgen receptor antagonists: bicalutamide, enzalutamide, and apalutamide, as well as androgen synthesis inhibitors: leuprolide, goserelin, triptorelin, and abiraterone.
# [6] = test system: CWR22Rv1 with CAF; assay: 3D co-cultures of CAF-CWR22Rv1, neuroendocrine gene panel rtPCR; assay type: cell-based, human; conditions: in the context of enzalutamide, 3 days, glutamine free media, well below control levels, F test P<0.0001
# Experimental: (§2) 3D organotypic co-culture. A modified version of the 3D organotypic co-culture system was performed in a collagen matrix similar to that previously reported (Stark H J, Baur M, Breitkreutz D, Mirancea N, and Fusenig N E. Organotypic keratinocyte cocultures in defined medium with regular epidermal morphogenesis and differentiation. J Invest Dermatol. 1999; 112(5):681-91). Matrix were prepared by mixing five volumes of rat tail collagen with two volumes of matrigel in one volume of 10×DMEM medium (GE Healthcare Life Sciences), and one volume of FBS (Atlanta Biologicals). CWR22Rv1 and primary mouse prostatic fibroblasts (WT or RAS^V12) were combined in a 1:3 ratio in the matrix. Nylon squares were coated with collagen and placed on metal grids in a 6-well plate. Matrix plugs containing cells, formed in 96 well plates (150 μl), were transferred onto the nylon squares and media was added to the level of the nylon mesh. Following treatments, the cells were dissociated from the matrix with collagenase and dispase for FACS analysis.
# as §1
# [7] = test system: PD1 and CD47 on CWR22Rv1; assay: FACS of immune checkpoint proteins in prostate cancer/fibroblast co-culture; assay type: cell-based, human; conditions: CWR22Rv1 co-cultured with wild type or CD105-knockout fibroblasts
# [8] = test system: CWR22Rv1 cells; assay: 3D organotypic co-culture, epithelial proliferation by FACS (EpCAM+/Ki67+); assay type: cell-based, human; conditions: 3D co-cultures of fibroblasts and CWR22Rv1; P<0.05 (GPNA), P<0.001 (BPTES)
# Experimental: as §2
# [9] = test system: human prostate cancer cells (CWR22Rv1); assay: Gene expression in prostate cancer cells (FIG. 15A-D); assay type: cell-based; conditions: FIG. 15D
# [10] = test system: CWR22Rv1 and CAF tissue recombinants; assay: Sub-renal capsule tissue recombinant xenograft, intact mice; assay type: in vivo, mouse; conditions: GPNA vs control
# From the text: (§3) Tissue recombination mouse models.
# [11] = test system: C4-2B cells; assay: Seahorse XF-24 metabolic flux analysis, C4-2B; assay type: cell-based, human; conditions: C4-2B in Ras^V12 fibroblast-CM; GPNA 10 μM
# Experimental: (§4) Seahorse XF-24 metabolic flux analysis. Oxygen consumption rate (OCR, pmol min-1) was measured with the Searhorse Bioscience XF24 extracellular flux analyzer. Cells were incubated in a CO2-free incubator for 1 h at 37° C. to allow for temperature and pH equilibration prior to loading into the XF24 apparatus. Initial assays were performed to optimize cell number, FCCP concentration and oligomycin concentration (data not shown). We used L-Glutamic acid γ-(p-nitroanilide) hydrochloride (GPNA, 10 μM), a specific glutamine […] inhibitor.
# [12] = test system: CWR22Rv1 and CAF tissue recombinants; assay: Castrate resistant sub-renal capsule xenograft (castration + enzalutamide)
# Experimental: Tissue recombination mouse models. Cell recombinants were prepared by mixing 2×10^5 epithelial (CWR22Rv1) cells with 6×10^5 CAFs or stromal cells expressing KRAS^V12 per site in collagen as described before (Banerj ee J, Mishra R, Li X, Jackson R S, 2nd, Sharma A, and Bhowmick N A. A reciprocal role of prostate cancer on stromal DNA damage. Oncogene. 2014; 33(41):4924-31). The mice were either left intact or castrated 1 week after grafting. […] Castrated mice were treated with enzalutamide (5 mg/kg) either alone or in combination with L-glutamic acid Υ-(p-nitroanilide) hydrochloride (GPNA; 10 mg/kg; Sigma-Aldrich) for three weeks. The tumor volumes were measured using digital calipers and calculated using the following formula: length (mm)×width (mm)×width (mm)×0.52. When the mice were sacrificed and tumors were excised and photographed. Formalin-fixed, paraffin-embedded (FFPE) xenograft tumor tissue was sectioned and stained with hematoxylin and eosin (H&E) and staining for chromogranin A, TUNEL, phosphorylated-hi stone H3 and phosphorylated-mTOR.
# [13] = test system: CWR22Rv1 cells; assay: Seahorse XF-24 metabolic flux analysis, CWR22Rv1; assay type: cell-based, human; conditions: CWR22Rv1 in Ras^V12 fibroblast-CM; GPNA 10 μM
# Experimental: as §4
# [14] = test system: CWR22Rv1; assay: MTT viability assay, CWR22Rv1; assay type: cell-based, human; conditions: CWR22Rv1, 72 hrs incubation with EIPA
# Experimental: (§5) (FIG. 10A) The viability of CWR22Rv1 and mouse prostatic fibroblasts (Cas9 control and Rasa13-KO) was measured by MTT assay following 72 hrs incubation with macropinocytotic inhibitor, EIPA. The bar graphs represent the absorbance of the MTT formazan determined at 570 nm from a single experiment representative of a total 3 independent experiments, each performed in quadruplicate. Statistical significance was determined by one-way ANOVA. (FIG. 10B) Quantitation of EpCAM-positive epithelial cells were achieved by FACS of 3D co-cultures of human C4-2B epithelia and wild type (WT) or Ras^V12 mouse fibroblasts. Statistical significance was determined by unpaired t test. (FIG. 10C) Stromal fibroblasts (Cas9 or Rasa13-KO) cultured with CWR22Rv1 epithelia using a standard transwell apparatus. […] Epithelial and stromal cells grown in glutamine free either DMEMF12 or RPMI media. are expressed as mean±SEM of 3 independent experiments. Statistical significance was determined by two-tailed student's t test. **P<0.01, ****P<0.0001.
# [15] = test system: CWR22Rv1 and Ras^V12 mouse fibroblast tissue recombinants; assay: Orthotopic tissue recombinant xenograft, EIPA treatment; assay type: in vivo; conditions: SCID mice, anterior prostate grafts; EIPA for 1 week from two weeks after grafting, vs vehicle control; P<0.01 (FIG. 2H)
# From the text: as §3
# To directly determine if Ras signaling confers a tumor supportive role associated with CAF, we used CRISPR/Cas9 to knock out Rasa13 in mouse prostatic fibroblasts. Compared to the expression of Cas9 fibroblasts (control), Ras activity and ERK phosphorylation was elevated in Rasa13-knockout (Rasa13-KO) fibroblasts (FIG. 2D). Rasa13-KO fibroblasts took up TMR dextran, whereas it was undetectable in the control fibroblasts (FIG. 2E). The exogenous expression of active Ras^V12 (Gly^12→Val^12) in wild-type mouse prostatic fibroblasts replicated the downstream ERK activation and macropinocytosis observed in CAF and Rasa13-KO cells (FIG. 2 F,G). Thus, epigenetic RASAL3 silencing of prostatic fibroblasts promoted familiar signaling and macropinocytosis associated with Ras transformation (Commisso et al., 2013). […] To test the role of stromal Ras-mediated macropinocytosis on tumor development, orthotopic PCa xenograft models were used. Tissue recombinants of Ras^V12-expressing fibroblasts and CWR22Rv1 epithelia were grafted into the anterior prostates of SCID mice. Two weeks later, mice were treated with vehicle control or EIPA for 1 week to suppress macropinocytosis (FIG. 2H). […] Thus, glutamine uptake by the tumor was necessary for its expansion.
# [16] = test system: mouse prostatic fibroblasts (Cas9 control); assay: MTT viability assay, control (Cas9 / wild type) fibroblasts; assay type: cell-based; conditions: 72 hrs incubation with EIPA
# Experimental: as §5
# [17] = test system: Rasa13-KO mouse prostatic fibroblasts; assay: MTT viability assay, Rasa13-KO fibroblasts; assay type: cell-based; conditions: 72 hrs incubation with EIPA, P<0.001
# Experimental: as §5
# [18] = castrated, enzalutamide treated mice, addition of GPNA
structure (smiles),measurement,setting,value
Nc1ncn([C@H]2C[C@H](O)[C@@H](CO)O2)c(=O)n1 [5-aza-2′-deoxycytidine],TMR-dextran uptake by CAF (macropinocytosis),[1],inhibited
same,methylation of the RASAL3 promoter (methylation specific PCR),[2],hypomethylation
same,RASAL3 mRNA expression in CAF,[3],restored
N[C@@H](CCC(=O)O)C(=O)O [glutamate],ALDH (stem marker),"[4]; prostate cancer epithelial cells (FIG. 17A, 17B)",upregulates ALDH further
"C[C@]12CC[C@H](O)CC1=CC[C@@H]1[C@@H]2CC[C@]2(C)C(c3cccnc3)=CC[C@@H]12 [A, Abiraterone]",PSA on treatment,[5],26.2 and 6.4
CC(O)(CS(=O)(=O)c1ccc(F)cc1)C(=O)Nc1ccc(C#N)c(C(F)(F)F)c1 (stereo not shown) [bicalutamide],PSA on treatment,[5],11.3
"CCNC(=O)[C@@H]1CCCN1C(=O)[C@H](CCCNC(=N)N)NC(=O)[C@H](CC(C)C)NC(=O)[C@@H](CC(C)C)NC(=O)[C@H](Cc1ccc(O)cc1)NC(=O)[C@H](CO)NC(=O)[C@H](Cc1c[nH]c2ccccc12)NC(=O)[C@H](Cc1c[nH]cn1)NC(=O)[C@@H]1CCC(=O)N1 [L, Leuprolide]",PSA on treatment,[5],<0.1 and 7.8 and 0.1 and 1.1 and 1.2 and 0.2
same,Outcome,"[5]; individual PCa patient, responsiveness to ADT based on serum PSA",Responsive (4×) and Non- (2×)
"O=C(Cc1ccccc1)Nc1nnc(CCSCCc2nnc(NC(=O)Cc3ccccc3)s2)s1 [BPTES, bis-2(5-phenylacetamido-1,3,4-thiadiazol-2-yl)ethyl sulfide]",mRNA expression of the panel of neuroendocrine biomarker genes,[6],significantly reduced
same,enzalutamide-upregulated ALDH,[4]; epithelial culture without stromal fibroblasts (FIG. 17B),can be limited
same,CD47 expression (FACS),[7],downregulated
same,PD1 expression (FACS),[7],downregulated
same,"epithelial proliferation (Ki-67 staining of EpCAM+ cells, FACS)",[8],significantly decreased epithelial proliferation
same,enzalutamide-induced TET2 expression,[9],downregulates
"N[C@@H](CCC(=O)Nc1ccc([N+](=O)[O-])cc1)C(=O)O [GPNA, L-gamma-glutamyl-p-nitroanilide]",mRNA expression of the panel of neuroendocrine biomarker genes,[6],significantly reduced
same,"epithelial proliferation (Ki-67 staining of EpCAM+ cells, FACS)",[8],significantly decreased epithelial proliferation
same,mitotic index (phosphorylated-histone H3),[10]; P<0.0001,reduced
same,tumor volume,[10]; P<0.001,reduced tumor volume
same,"basal respiration, ATP, and maximal respiration (OCR)",[11],"restored basal respiration, ATP, and maximal respiration to that observed with wild type fibroblast-CM"
same,cell death (TUNEL),"[12]; GPNA + ADT vs ADT alone, P<0.001",elevated
same,localization of phosphorylated-mTOR (Ser-2481),"[12]; GPNA + ADT vs ADT alone, P<0.05",reduced
same,mitotic index (phosphorylated histone H3),[12]; GPNA + ADT vs androgen signaling blockage alone,did not significantly change
same,tumor size,"[12]; castrated mice, enzalutamide 5 mg/kg + GPNA 10 mg/kg for three weeks vs ADT alone, P<0.0001",significantly reduced tumor size
same,chromogranin A expression induced by castration and enzalutamide,[12]; [18],reduced chromogranin A expression
same,histology (H&E),[12]; [18],associated with karyolytic cells
same,"basal respiration, ATP, and maximal respiration (OCR)",[13],"restored basal respiration, ATP, and maximal respiration to that observed with wild type fibroblast-CM"
"CCN(c1nc(N)c(C(=O)N=C(N)N)nc1Cl)C(C)C [EIPA, 5-(N-ethyl-N-isopropyl) amiloride]",viability (MTT),[14],no significant effect
same,TMR-dextran uptake by CAF (macropinocytosis),[1],inhibited
same,tumor size,[15],dramatically reduced tumor size
same,viability (MTT),[16],no significant effect
same,viability (MTT),[17],reduced the viability
